Assay results published in the SangsterLogP compilation.

Assay: method code SF-AS, from DOI: 10.1021/jo00922a017
Settings: pH 1.0

SMILES | logD
CS(=O)(=O)c1cccc(NS(=O)(=O)C(F)(F)F)c1 | 1.85
O=S(=O)(Nc1ccc(I)cc1)C(F)(F)F | 4.39
CC(=O)c1ccc(NS(=O)(=O)C(F)(F)F)cc1 | 2.83
O=S(=O)(Nc1ccc(-c2ccccc2)cc1)C(F)(F)F | 4.97
O=S(=O)(Nc1ccc(F)cc1F)C(F)(F)F | 3.06
O=C(c1ccccc1)c1ccc(NS(=O)(=O)C(F)(F)F)cc1 | 4.28
O=S(=O)(CF)Nc1ccccc1 | 1.35
O=S(=O)(Nc1cccc(F)c1)C(F)(F)F | 3.42
CS(=O)(=O)c1ccc(NS(=O)(=O)C(F)(F)F)cc1 | 1.99
Cc1ccc(NS(=O)(=O)C(F)(F)F)cc1 | 3.6
COc1ccc(NS(=O)(=O)C(F)(F)F)cc1 | 3
O=S(=O)(Nc1ccc(F)cc1)C(F)(F)F | 3.25
O=S(=O)(Nc1ccc(Cl)cc1)C(F)(F)F | 3.96
O=S(=O)(Nc1cccc(Cl)c1)C(F)(F)F | 4
O=S(=O)(Nc1cccc(Br)c1)C(F)(F)F | 3.82
O=S(=O)(CF)Nc1ccc(Cl)cc1 | 2.25
O=S(=O)(Nc1cccc(O)c1)C(F)(F)F | 2.51
O=S(=O)(Nc1cccc(C(F)(F)F)c1)C(F)(F)F | 4.5
O=S(=O)(Nc1ccc(Cl)cc1)C(F)F | 2.84
O=S(=O)(Nc1ccc(C(F)(F)F)cc1)C(F)(F)F | 4.47
CS(=O)(=O)Nc1ccc(Cl)cc1 | 1.85
COc1cccc(NS(=O)(=O)C(F)(F)F)c1 | 3.13
CC(=O)c1cccc(NS(=O)(=O)C(F)(F)F)c1 | 2.78
O=S(=O)(Nc1ccc(Cl)cc1Cl)C(F)(F)F | 3.88
O=S(=O)(Nc1ccccc1)C(F)F | 1.95
O=S(=O)(Nc1ccccc1)C(F)(F)F | 3.05
